Results published in patent US20240285555A1, “COMPOSITIONS FOR THE TREATMENT OF COPPER DEFICIENCY AND METHODS OF USE” (priority 2018, published 2024).

What was measured:
[1] = system: Coa6 knockdown zebrafish embryos
Protocol: Batches of 50 fertilized embryos injected with either translation blocking or mismatch control morpholinos were treated with or without 100 nM ES at 3 hpf, before making observations at the indicated time points (n % 30 for each time point and treatment).
Zebrafish Experiments. […] Wild type AB strain and Ctr1 heterozygous zebrafish were maintained and crossed using standard methods. Embryos were staged and raised in Egg Water at 28.5° C. For drug treatments, embryos from Ctr1 heterozygous crosses were incubated in 10 nM ES diluted in Egg Water beginning at 3 hours post-fertilization (hpf). For imaging live embryos at 48 hpf, representative embryos of each sample were anesthetized in Tricaine and imaging was performed on an Olympus SZX12 stereomicroscope. […] Morpholino-based experiments were performed.

sco1Δ cells = assay: Respiratory growth rescue of sco1Δ yeast; assay type: cell-based, Saccharomyces cerevisiae; conditions: non-fermentable media, 37° C.
Protocol: (§1) Yeast Strains and Culture Conditions. The authenticity of yeast strains was confirmed by PCR as well as by replica plating on dropout plates. Yeast cells were cultured in standard YP growth media including YPD (1% yeast extract, 2% peptone and 2% glucose), YPGal (2% galactose), YPGE (3% glycerol+1% ethanol), or synthetic media (SC glucose). For qualitative growth measurement, 10-fold serial dilutions of overnight cultures were spotted on YPD or YPGE plates and incubated at 30° C. and 37° C. for the indicated period. Growth in liquid media was measured spectrophotometrically at 600 nm.
(§2) ES Rescues Many Different Yeast Mutants with Impaired Copper Metabolism. To test the specificity of ES mediated rescue, a number of yeast mutants of genes required for maintaining cellular and mitochondrial copper homeostasis were shortlisted. Genes were prioritized based on their evolutionary conservation, presence of pathogenic mutations in humans, and/or the existence of a related mouse phenotype (Table 3, shown below). […] Most of the yeast mutants were rescued with ES supplementation, albeit to different degrees, reflecting their distinct roles in cellular and mitochondrial copper homeostasis.

ctr1Δ cells = assay: Respiratory growth rescue of ctr1Δ yeast; assay type: cell-based, Saccharomyces cerevisiae; conditions: non-fermentable media, 37° C.
Protocol: as §1, §2

[2] = system: Ctr1^−/− H9c2 cardiomyocytes; assay: Intracellular copper levels in Ctr1 knockout H9c2 cardiomyocytes (ICP-MS); assay type: cell-based, rat; conditions: 5 nM ES
Protocol: FIGS. 4A and 4B illustrates the effects of ES supplementation in increasing copper levels (A) and cytochrome c oxidase subunit, COX1, and superoxide dismutase, SOD1 levels (B) in Ctrl1^−/− H9c2 rat cardiomyocytes. ATP5A is a subunit of mitochondrial ATP synthase and was used as a loading control for the Western blotting experiment.
Mammalian Cell Culture. The human control MCH46 and SCO2 patient fibroblasts as well as the rat H9c2 control and Ctr1^−/− cardiomyocytes were cultured in high glucose Dulbecco's modified Eagle's medium (DMEM) supplemented with 10% fetal bovine serum (Sigma) and 1 mM sodium pyruvate (Life Technologies). […] Whole cell protein was extracted in lysis buffer (BP-115, Boston BioProducts) supplemented with protease inhibitor cocktail (Roche Diagnostics) and the protein concentrations were determined by BCA assay (Thermo Scientific). […]
Cellular and Mitochondrial Copper Measurements. Cellular and mitochondrial copper levels were measured using the Perkin Elmer DRC II Inductively Coupled Plasma-Mass Spectrometer (ICP-MS). […] Samples were diluted in ultrapure metal-free water (TraceSELECT, Sigma) and analyzed by ICP-MS. […] Copper concentrations in mammalian cells were also measured by ICP-MS. […]

Yeast coa6Δ cells = assay: Rescue of respiratory growth of yeast coa6Δ cells in YPGE medium (cell density at 600 nm); assay type: cell-based, Saccharomyces cerevisiae
Protocol: FIG. 1 illustrates determination of the median effective dose (ED50) of elesclomol. Yeast coa6Δ cells were cultured in YPGE medium at 37° C. in the presence of increasing concentrations (0.01 nM to 1 μM) of elesclomol (ES). The cell density was measured spectrophotometrically after 58 hours of growth at 600 nm. The data represent the average±SD from three independent measurements.
FIGS. 3A and 3B illustrates elesclomol rescue of respiratory growth of coa6Δ cells is dependent on copper availability. BY4741 WT, FIG. 3A, and coa6Δ, FIG. 3B, cells were cultured in YPGE medium at 37° C. in the presence of 10 nM ES, 20 μM of the copper chelator bathocuproine disulfonic acid (BCS), or a combination of both. The cell density was measured spectrophotoretrically at the indicated time points at 600 nm. The data are representative of two independent experiments.
as §1
A number of copper-binding pharmacological agents were tested for their ability to rescue respiratory deficient growth of coa6Δ cells. […] ES rescued the respiratory growth of coa6Δ cells with an ED50 of 0.8 nM (FIG. 1). ES-mediated growth rescue of coa6Δ cells was also observed on solid growth medium containing a non-fermentable carbon. […] To determine the biochemical basis for the observed respiratory rescue of coa6Δ cells, the assembly and activity of CcO-containing mitochondrial respiratory chain supercomplexes was measured by native-polyacrylamide gel electrophoresis blotting and in-gel activity assay, respectively. […]

Which pericardial edema ([1]; 100 nM ES) does the source give for `CN(NC(=O)CC(=O)NN(C)C(=S)c1ccccc1)C(=S)c1ccccc1` [ES, elesclomol] here?
Its pericardial edema is “prevented pericardial edema”.

And the “rescue of morphological phenotype score” value ([1]; 100 nM ES at 3 hpf, scored at 24, 48, 72, 96 hpf)?
Its value is “rescue with 100 nM ES treatment was observed as early as 48 hpf”.

And the “heart rate of Coa6 knockdown embryos” value ([1]; 100 nM ES, 72 and 96 hpf)?
Its value is “significantly increased the heart rate”.

What about the “rescue of respiratory growth” value (sco1Δ cells) of the same molecule?
Its value is “failed to rescue”.

What about the “rescue of respiratory growth” value (ctr1Δ cells) of the same molecule?
Its value is “higher concentration of ES is required to rescue”.

And the intracellular copper levels [2]?
The intracellular copper levels was “restored”.

What about the “ES mediated rescue in the presence of BCS” value (Yeast coa6Δ cells; 10 nM ES with 20 μM BCS) of the same molecule?
Its value is “diminished”.

What about the “potency relative to copper in rescuing the respiratory growth defect” value (Yeast coa6Δ cells; ES versus copper) of the same molecule?
The value was “at least 1000 times”.

And the EC50 (Yeast coa6Δ cells; Saccharomyces cerevisiae, YPGE medium, 37° C., 0.01 nM to 1 μM ES, cell density at 600 nm after 58 hours, read-out: ED50 of rescue of respiratory growth)?
The EC50 was 0.8 nM.
